This experiment deals with T1, human FOXO1 (constitutively active form Thr24Ala, Ser256Ala, Ser319Ala) (Homo sapiens, UniProt Q12778, S256A/S319A/T24A).
T1 construct: expressed in transfected cells; host or cells: HEK293 cells transfected with pcDNA3.1 plasmid
Nature of the experiment: FOXO1 inhibitor activity assay: cell-based transcriptional (luciferase) reporter assay in HEK293 cells. The conditions noted are these: HEK293 cells transfected with insulin response element firefly luciferase reporter, FOXO1 and Renilla luciferase; 10-point dose response 50 μM to 2.5 nM; 24 hours. The method, then: The inhibitory activities of compounds on FOXO1 were determined by a cell-based transcriptional reporter assay. HEK293 cells were plated onto either 384-well poly-D-lysine coated plates (at 7500 cells per well) or 96-well plates (at 20000 cells per well) in low glucose Eagle's Minimum Essential Medium (EMEM) containing 1% fetal bovine serum, and incubated overnight at 37° C. and 5% CO2. […] Duplicate wells were included for each treatment condition. Cells were incubated for 24 hours at 37° C. and 5% CO2. Luciferase activities in each well were measured using Dual-Glog Luciferase Assay System (Promega) according to manufacturer's protocol and an Envision plate reader suitable for luminescence detection. Firefly luciferase activity was divided by Renilla luciferase activity to calculate a ratio for each well. The ratio in wells containing cells transfected with all 3 plasmids listed above and receiving only DMSO without compound addition was set to 100%. The ratio in wells containing cells transfected with plasmid (1), plasmid (3), and pcDNA3.1 containing the open reading frame of red fluorescent protein (instead of human FOXO1) and treated with DMSO was set to 0%. The ratio in each well receiving compound treatment was normalized and expressed as a percentage. Data were fit by 4-parameter logistic regression to determine IC50 and maximal inhibition values. Each compound was tested in a minimum of 2 independent experiments.

A value given as a limit tells only on which side of the number the result lay.

Our source for the IC50 values is patent publication US20230416228A1 (Forkhead Biotherapeutics, Inc., priority 2020, published 2023).

Usually IC50 stands for the concentration at which inhibition is half-maximal. A low value points to higher potency.

T1 sequence (Q12778 whole entry T24A/S256A/S319A): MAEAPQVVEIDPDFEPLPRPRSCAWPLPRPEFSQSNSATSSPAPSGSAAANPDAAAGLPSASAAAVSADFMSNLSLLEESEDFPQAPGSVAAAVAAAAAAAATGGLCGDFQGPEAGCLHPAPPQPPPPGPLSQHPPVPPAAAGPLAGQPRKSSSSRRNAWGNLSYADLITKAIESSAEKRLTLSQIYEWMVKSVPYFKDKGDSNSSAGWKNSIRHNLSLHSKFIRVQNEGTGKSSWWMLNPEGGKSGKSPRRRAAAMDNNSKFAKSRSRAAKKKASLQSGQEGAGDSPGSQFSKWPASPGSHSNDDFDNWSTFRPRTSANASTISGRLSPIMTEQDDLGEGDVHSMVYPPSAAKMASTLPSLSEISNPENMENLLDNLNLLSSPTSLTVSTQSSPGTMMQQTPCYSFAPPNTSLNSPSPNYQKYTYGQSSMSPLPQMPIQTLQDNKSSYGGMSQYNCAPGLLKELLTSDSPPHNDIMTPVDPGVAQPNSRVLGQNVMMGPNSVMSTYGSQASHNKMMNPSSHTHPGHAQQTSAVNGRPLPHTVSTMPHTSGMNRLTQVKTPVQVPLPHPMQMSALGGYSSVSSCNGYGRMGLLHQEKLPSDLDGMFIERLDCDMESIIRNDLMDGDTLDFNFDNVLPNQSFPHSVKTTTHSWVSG

`Cn1nc(NC(=O)c2ccc(N3CCN(CCO)CC3)nc2)cc1-c1nc2cc(F)ccc2[nH]1` [Compound A-150] had an IC50 of 100 to 300 nM. For `COc1ccc(C(=O)Nc2cc(-c3nc4ccccc4[nH]3)[nH]n2)cc1F` [Compound A-124, N-[5-(1H-benzimidazol-2-yl)-1H-pyrazol-3-yl]-3-fluoro-4-methoxy-benzamide] the value was less than 100 nM; for `Cn1nc(NC(=O)c2ccc(N3CC4CCC(C3)N4)nc2)cc1-c1nc2ccccc2[nH]1` [Compound A-286, N-[5-(1H-benzimidazol-2-yl)-1-methyl-pyrazol-3-yl]-6-(3,8-diazabicyclo[3.2.1]octan-3-yl)pyridine-3-carboxamide], 100 to 300 nM. For `Cn1nc(NC(=O)c2ccc(N3C4CCC3COC4)nc2)cc1-c1nc2ccccc2[nH]1` [Compound A-285, N-[5-(1H-benzimidazol-2-yl)-1-methyl-pyrazol-3-yl]-6-(3-oxa-8-azabicyclo[3.2.1]octan-8-yl)pyridine-3-carboxamide] the value was less than 100 nM; for `COc1ccc(C(=O)Nc2cc(-c3nc4ccccc4[nH]3)n(CCO)n2)cc1Cl` [Compound A-195, N-[5-(1H-benzimidazol-2-yl)-1-(2-hydroxyethyl)pyrazol-3-yl]-3-chloro-4-methoxy-benzamide], 100 to 300 nM.

`Cn1nc(NC(=O)c2ccc(N3CCN(CCOC4CC4)CC3)nc2)cc1-c1nc2ccccc2[nH]1` [Compound A-266, N-[5-(1H-benzimidazol-2-yl)-1-methyl-pyrazol-3-yl]-6-[4-[2-(cyclo-propoxy)ethyl]piperazin-1-yl]pyridine-3-carboxamide] registered an IC50 of less than 100 nM.

`CN1CCN(c2ccc(C(=O)Nc3cc(-c4nc5ccccc5[nH]4)n(CCO)n3)cn2)CC1` [Compound A-200, N-[5-(1H-benzimidazol-2-yl)-1-(2-hydroxyethyl)pyrazol-3-yl]-6-(4-methyl-piperazin-1-yl)pyridine-3-carboxamide] registered an IC50 of 300 to 1000 nM.

In the case of `O=C(Nc1cc(-c2nc3cc(C(F)(F)F)ccc3[nH]2)[nH]n1)c1ccc(N2CCC(O)CC2)nc1` [Compound A-105, 6-(4-hydroxy-1-piperidyl)-N-[5-[5-(trifluoromethyl)-1H-benzimidazol-2-yl]-1H-pyrazol-3-yl]pyridine-3-carboxamide], the IC50 is more than 1000 nM.

As to `Cn1nc(NC(=O)c2ccc(N3CCOCC3CO)nc2)cc1-c1nc2ccccc2[nH]1` (stereo not shown) [Compound A-238, N-[5-(1H-benzimidazol-2-yl)-1-methyl-pyrazol-3-yl]-6-[3-(hydroxymethyl)morpholin-4-yl]pyridine-3-carboxamide], the IC50 lay in the range of 100 to 300 nM. For `O=C(Nc1cc(-c2nc3ccccc3[nH]2)[nH]n1)c1ccc(N2CCCC(CO)C2)nc1` (stereo not shown) [Compound A-68, N-[5-(1H-benzimidazol-2-yl)-1H-pyrazol-3-yl]-6-[3-(hydroxymethyl)-1-piperidyl]pyridine-3-carboxamide] the value was less than 100 nM; for `Cn1nc(NC(=O)c2ccc(N3CCNC(C)(C)C3)nc2)cc1-c1nc2ccccc2[nH]1` [Compound A-280, N-[5-(1H-benzimidazol-2-yl)-1-methyl-pyrazol-3-yl]-6-(3,3-dimethyl-piperazin-1-yl)pyridine-3-carboxamide], less than 100 nM; for `COC1CN(c2ccc(C(=O)Nc3cc(-c4nc5ccccc5[nH]4)[nH]n3)cn2)C1` [Compound A-65, N-[5-(1H-benzimidazol-2-yl)-1H-pyrazol-3-yl]-6-(3-methoxyazetidin-1-yl)pyridine-3-carboxamide], less than 100 nM.

Molecule `Cn1nc(NC(=O)c2ccc(N3C[C@H]4COC[C@H]4C3)nc2)cc1-c1nc2ccccc2[nH]1` [Compound A-267, 6-[(3aR,6aS)-1,3,3a,4,6,6a-hexahydrofuro[3,4-c]pyrrol-5-yl]-N-[5-(1H-benzimidazol-2-yl)-1-methyl-pyrazol-3-yl]pyridine-3-carboxamide] had an IC50 of less than 100 nM. Take `C[C@@H]1CN(c2ccc(C(=O)Nc3cc(-c4nc5ccccc5[nH]4)n(C)n3)cn2)CCN1` [Compound A-247, N-[5-(1H-benzimidazol-2-yl)-1-methyl-pyrazol-3-yl]-6-[(3R)-3-methylpiperazin-1-yl]pyridine-3-carboxamide]: the IC50 is less than 100 nM.

`O=C(Nc1cc(-c2nc3ccccc3[nH]2)[nH]n1)c1ccc(N2CC[C@H](O)C2)cc1` [Compound A-43, N-[5-(1H-benzimidazol-2-yl)-1H-pyrazol-3-yl]-4-[(3S)-3-hydroxy-pyrrolidin-1-yl]benzamide] came in with a half-inhibitory concentration (IC50) of less than 100 nM.

`COCCN1CCN(c2ccc(C(=O)Nc3cc(-c4nc5cc(F)ccc5[nH]4)n(C)n3)cn2)CC1` [Compound A-149] showed an IC50 of 100 to 300 nM. In turn, `CCOC(=O)COc1ccc(C(=O)Nc2cc(-c3nc4ccccc4[nH]3)[nH]n2)cn1` [Compound A-70, ethyl 2-[[5-[[5-(1H-benzimidazol-2-yl)-1H-pyrazol-3-yl]carbamoyl]-2-pyridyl]oxy]acetate] had an IC50 of more than 1000 nM. `COc1ccc(C(=O)Nc2cc(-c3nc4cc(N5CCOCC5)ccc4[nH]3)[nH]n2)cc1Cl` [Compound A-265, 3-chloro-4-methoxy-N-[15-(5-morpholino-1H-benzimidazol-2-yl)-1H-pyrazol-3-yl]benzamide] had a 50% inhibitory concentration (IC50) of less than 100 nM. For `Cn1nc(NC(=O)c2ccc(N3CCC(N4CCOCC4)CC3)nc2)cc1-c1nc2cccc(F)c2[nH]1` [Compound A-173] the value was 100 to 300 nM; for `CN1CCN(c2cnc(C(=O)Nc3cc(-c4nc5ccccc5[nH]4)[nH]n3)cn2)CC1` [Compound A-179, N-[5-(1H-benzimidazol-2-yl)-1H-pyrazol-3-yl]-5-(4-methylpiperazin-1-yl)pyrazine-2-carboxamide], 100 to 300 nM; for `Cn1nc(NC(=O)c2cnc(N3CCC(N4CCOCC4)CC3)cn2)cc1-c1nc2ccccc2[nH]1` [Compound A-205, N-[5-(1H-benzimidazol-2-yl)-1-methyl-pyrazol-3-yl]-5-(4-morpholino-1-piperidyl)pyrazine-2-carboxamide], 300 to 1000 nM. For `Cn1nc(NC(=O)c2ccc(N3CC(CO)C3)nc2)cc1-c1nc2ccccc2[nH]1` [Compound A-270, N-[5-(1H-benzimidazol-2-yl)-1-methyl-pyrazol-3-yl]-6-[3-(hydroxymethyl)azetidin-1-yl]pyridine-3-carboxamide] the value was 300 to 1000 nM. For `O=C(Nc1cc(-c2nc3cc(OC(F)(F)F)ccc3[nH]2)[nH]n1)c1ccc(N2CCC(CO)CC2)nc1` [Compound A-114, 6-[4-(hydroxymethyl)-1-piperidyl]-N-[5-[5-(trifluoromethoxy)-1H-benzimidazol-2-yl]-1H-pyrazol-3-yl]pyridine-3-carboxamide] the value was more than 1000 nM; for `COCCN1CCN(c2ccc(C(=O)Nc3cc(-c4nc5ccccc5[nH]4)[nH]n3)cn2)CC1` [Compound A-142, N-[5-(1H-benzimidazol-2-yl)-1H-pyrazol-3-yl]-6-[4-(2-methoxyethyl)-piperazin-1-yl]pyridine-3-carboxamide], less than 100 nM; for `COCCOc1ccc(C(=O)Nc2cc(-c3nc4cc(OC)ccc4[nH]3)[nH]n2)cc1Cl` [Compound A-79, 3-chloro-N-[5-(5-methoxy-1H-benzimidazol-2-yl)-1H-pyrazol-3-yl]-4-(2-methoxyethoxy)benzamide], less than 100 nM.

Take `COCCOc1ccc(C(=O)Nc2cc(-c3nc4ccccc4[nH]3)[nH]n2)cc1C#N` [Compound A-129, N-[5-(1H-benzimidazol-2-yl)-1H-pyrazol-3-yl]-3-cyano-4-(2-methoxyethoxy)benzamide]: the IC50 is 100 to 300 nM. For `Cc1ccc2[nH]c(-c3cc(NC(=O)c4ccc(N5CCOCC5)nc4)n[nH]3)nc2c1` [Compound A-100, N-[5-(5-methyl-1H-benzimidazol-2-yl)-1H-pyrazol-3-yl]-6-morpholino-pyridine-3-carboxamide] the value was 100 to 300 nM. For `COCCOc1ccc(C(=O)Nc2cc(-c3nc4ccccc4[nH]3)[nH]n2)cc1OC` [Compound A-75, N-[5-(1H-benzimidazol-2-yl)-1H-pyrazol-3-yl]-3-methoxy-4-(2-methoxyethoxy)benzamide] the value was less than 100 nM; for `O=C(Nc1cc(-c2nc3cccc(F)c3[nH]2)[nH]n1)c1ccc(OCCO)c(Cl)c1` [Compound A-119, 3-chloro-N-[5-(7-fluoro-1H-benzimidazol-2-yl)-1H-pyrazol-3-yl]-4-(2-hydroxyethoxy)benzamide], 100 to 300 nM; for `CN(C)C1CCN(c2ccc(C(=O)Nc3cc(-c4nc5ccccc5[nH]4)[nH]n3)cn2)CC1` [Compound A-46, N-[5-(1H-benzimidazol-2-yl)-1H-pyrazol-3-yl]-6-[4-(dimethylamino)-1-piperidyl]pyridine-3-carboxamide], less than 100 nM. Turning to `COC1CCN(c2ccc(C(=O)Nc3cc(-c4nc5cc(F)ccc5[nH]4)n(C)n3)cn2)CC1` [Compound A-153, N-[5-(5-fluoro-1H-benzimidazol-2-yl)-1-methyl-pyrazol-3-yl]-6-(4-methoxy-1-piperidyl)pyridine-3-carboxamide], the IC50 lay in the range of 100 to 300 nM.
